{"source": "paper PMC7395176", "about": "“Retromer stabilization results in neuroprotection in a model of Amyotrophic Lateral Sclerosis” (Nature Communications, 2020)", "key": {"VPS29-VPS35 heterodimer": {"target": "VPS29-VPS35 heterodimer (Homo sapiens, UniProt Q96QK1+Q9UBQ0)", "assay": "STD-NMR and WaterLogsy-NMR ligand-based binding experiments", "settings": "2a 500 μM, VPS29-VPS35 10 μM", "experimental": "We used a ligand-based NMR approach to localize the binding between compound 2a and the VPS29-VPS35 heterodimer. These techniques provide binding information without requiring any isotopic labeling of the proteins. Particularly, Saturation Transfer Difference NMR (STD-NMR)[32] and WaterLogsy-NMR (WL-NMR)[33] experiments were acquired in buffer solutions containing a large excess of compound 2a (500μM) with respect to VPS29-VPS35 (10 μM). Both STD-NMR and WL-NMR focus on the NMR signals of the ligand and utilize the magnetization transfer by the Nuclear Overhauser Effect (NOE) between protein and ligand. STD-NMR experiments are carried out by subtraction of a 1D ^1H spectrum where the protein protons are selectively irradiated (on-resonance spectrum) from a spectrum in which the protein is not saturated (off-resonance spectrum).\nWL-NMR entails magnetization transfer to the ligand from either bulk water via a macromolecule, and/or the exchangeable protons and the water molecules present in the binding site. Positive peaks for proton resonances of the ligand in the WL-NMR spectrum are observed for binders in presence of the protein. […] As negative control, STD-NMR and WL-NMR experiments were performed for compound 2a in absence of the heterodimer. The absence of proton signals in the aromatic zone and the presence of negative signals in STD-NMR (Fig. 2k) and WL-NMR (Fig. 2l) spectra, respectively, confirms the binding between compound 2a and the VPS29-VPS35 heterodimer. Unfortunately, STD- and WL-NMR competition experiments between 2a and R55/1 could not be performed since the latter compound was not stable in our experimental conditions.\nNMR spectra were acquired at 298K on a Bruker Avance NEO 700 MHz spectrometer equipped with a Z-gradient cryoprobe. The spectra were processed with the Bruker TOPSPIN 4.0.5 software packages. […] 1D ^1H spectra were recorded using a 1 s presaturation pulse with a B1 power of 200 Hz. […]"}, "CI-MPR": {"system": "CI-MPR", "assay": "CI-MPR fluorescence in MNs of treated G93A mice", "format": "in vivo", "settings": "10 mg/kg, day 100", "excerpt": "We next asked whether increasing VPS35/26 protein levels is sufficient to increase retromer functionality. CI-MPR is unstable in VPS26-knockout cells, and we observed a substantial reduction of CI-MPR MFI levels in MNs of vehicle-treated G93A mice compared with WT litters (Fig. 6c). […] Sortilin encodes a receptor belonging to the Vps10 family involved in Frontotemporal Dementia (FTD)[45], which shares functional homologies with MPRs and is another retromer cargo[46].\nFluorescence intensity levels of VPS35, VPS26, CI-MPR, Sortilin, CTSD and Ubiquitin were calculated using NHI-Image J software (US National Institutes of Health) according to the following protocol: stacks of confocal images were used to generate the maximal projections using the Leica Application Suite X (2.0.0.14332) software and then postprocessed by NHI-Image J to crop single NeuN^+ MNs from the ventral horn of the spinal cord. We next performed background (calculated on adjacent slices only receiving secondary antibodies) subtraction for each channel, before applying the NHI-Image J mean filter (with radius 2.0 pixels) to calculate mean NeuN fluorescence levels in individual MNs. Using this approach, we established a region of interest (ROI) to gate single MNs. On this ROI, we measured mean fluoresce levels (MFI) of target proteins."}, "GM130": {"system": "GM130", "assay": "Golgi apparatus (GM130) in MNs of treated G93A mice", "format": "in vivo", "settings": "10 mg/kg, day 100", "excerpt": "Ubiquitinated inclusions accumulate in MNs from sALS and fALS patients, and in ALS mice[51]. We characterized poly-ubiquitinated proteins in lumbar SCs protein extracts by 10% denaturating PAGE. Protein extracts from Neuro2a cells treated with the proteasome inhibitor Bortezomib (BTZ), able to increase poly-ubiquitination, were used as an experimental control[52] (Fig. 7a). […] We next scored ubiquitin MFI levels in ventral horn MNs of G93A mice. […] (Fig. 7c and d). We next scored the Golgi apparatus in G93A mice by labeling lumbar sections for the cis-Golgi matrix protein GM130[54]. […] (Fig. 7e).\nSections from mice or glass covers containing cells were washed three times in PBS 1× (Lonza, 5 min each), and incubated in the following blocking mix: PBS 1×/FBS 10% (Invitrogen), BSA 1 mg/mL (Sigma–Aldrich), TritonX100 0.1% (Sigma Aldrich), for 1 h at room temperature. Antibodies were diluted in blocking mix and incubated at +4 °C overnight according manufacturer’s instructions. The following day, sections were rinsed in PBS and fluorescent secondary antibodies—i.e. never deriving from the species from which the primary antibodies are derived- (Alexafluor conjugated) diluted in blocking mix, were used according to the manufacturer’s instructions. Slides were incubated in Hoechst 33342 (Sigma–Aldrich) for nuclei counterstaining. […]"}}, "data": [{"smiles": "NC(N)=N/N=C/c1cccc(/C=N/N=C(N)N)c1", "note": "[compound 2a, phenyl-1,3-bis-guanylhydrazone]", "values": [{"measurement": "STD-NMR binding", "setting": "VPS29-VPS35 heterodimer", "result": "interaction between the ligand and the protein complex"}, {"measurement": "WL-NMR binding", "setting": "VPS29-VPS35 heterodimer", "result": "binds to the protein complex"}, {"measurement": "CI-MPR MFI levels in MNs", "setting": "CI-MPR", "result": "significantly increased"}, {"measurement": "reduction of GM130-covered areas in MNs (Golgi fragmentation)", "setting": "GM130", "result": "substantially reverted"}]}]}
